Experimental data from US20240301501A1, “A METHOD FOR ASSESSING THE POTENTIAL EFFECT OF THERAPEUTICS ON AN INDIVIDUAL” (AGENCY FOR SCIENCE TECHNOLOGY AND RESEARCH, priority 2022, published 2024).
Read-outs that look alike come from different tables or passages of the source. One block for each compound: values may come before it.

How the values were obtained:
[1] = Measurement of tamoxifen metabolites in finger-prick blood (VAMS, UPLC-MS/MS); type: in vivo, human (Indonesian ER+ breast cancer patients); conditions: for range of metabolite levels before dose adjustment / range of metabolite levels after dose adjustment: IM patients (n=26); for range of metabolite levels before dose adjustment: tamoxifen 20 mg daily; for concentration at 8 weeks: human, whole blood (finger-prick, VAMS), oral, 40 mg daily, read-out: range of metabolite levels after dose adjustment; for range of metabolite levels after dose adjustment: tamoxifen 40 mg daily for two months
Procedure: Finger-prick blood sample was obtained using Volumetric Absorptive Microsampling (VAMS) technique. VAMS extraction was performed in methanol by sonication-assisted extraction method for 25 minutes after 2 hours of VAMS drying. Separation was carried out using Acquity UPLC BEH C1s column (2.1×100 mm; 1.7 μm), with a flow rate of 0.2 mL/minute, and the mobile phase gradient of formic acid 0.1% combined with formic acid 0.1% in acetonitrile for 5 minutes. The UPLC-MS/MS Waters Xevo TQD Triple Quadrupole with MassLynx Software controller (Waters, Milford, USA) was employed in metabolites measurement. Mass detection was carried out utilizing Triple Quadrupole (TOD) with Multiple Reaction Monitoring (MRM) analysis modes and an electrospray ionization source using positive mode. The method was developed in the Bioavailability and Bioequivalence Laboratory of Universitas Indonesia and validated according to FDA and EMA guidelines. The multiple reaction monitoring (MRM) value were set at m/z 372.28>72.22 for TAM; 374.29>58.22 for END; 388.29>72.19 for 4-HT; 358.22>58.09 for NDT; and 260.20>116.20 for propranolol as the internal standard.
(§1) This group of patients were determined based on clinical judgement according to the available guidelines by The National Surgical Oncologist Organization and Ministry of Health in Indonesia (Komite Penanggulangan Kanker Nasional, n.d.), National Comprehensive Cancer Network (NCCN, 2021), and British Columbia Cancer Agency.
(§2) Data and statistical analysis were performed using Microsoft® Excel® for Microsoft 365 and R version 4.0.3. Deviation from Hardy-Weinberg equilibrium was performed on the haplotype frequencies using the chi-square statistical test, where Bonferonni correction was applied to determine the p-value threshold for significant deviation. Analysis of Variance (ANOVA) test was used to see if metabolite levels distribution at baseline were statistically different across all metabolites, followed by a paired T-test between each pair of metabolites when significance was found. Distribution of metabolite levels before and after dose adjustment was compared using a T-test, and the same test was used to compare the distribution of metabolite levels in IMs post-dose adjustment against NMs (baseline). Concerning symptoms related to endocrine therapy post-dose adjustment on IMs were compared against NMs. Chi-square test was performed per symptom to check for the difference between the two groups.

[2] = Endocrine symptoms / side effects of tamoxifen therapy, FACT-ES questionnaire; type: in vivo, human (Indonesian ER+ breast cancer patients)
Procedure: as §1, §2

[3] = cited from earlier work
[4] = CYP2D6 Intermediate Metabolizer (N = 61), baseline
[5] = CYP2D6 Normal Metabolizer (N = 81), baseline
[6] = CYP2D6 Poor Metabolizer (N = 2), baseline
[7] = IM participants, 40 mg tamoxifen daily (N = 22), eight weeks after dose adjustment
[8] = IM participants, 40 mg tamoxifen daily, eight weeks after dose adjustment
[9] = IMs, 40 mg tamoxifen daily, n=26
[10] = NM participants, 20 mg tamoxifen daily (N = 31)
[11] = NMs, 20 mg tamoxifen daily, n=31

Compound: CC/C(=C(\c1ccccc1)c1ccc(OCCNC)cc1)c1ccccc1 [N-desmethyltamoxifen]
range of metabolite levels before dose adjustment [1]: 77.61 to 337.29 ng/mL
range of metabolite levels after dose adjustment [1]: 236.8 to 501.9 ng/mL

Compound: CC/C(=C(\c1ccccc1)c1ccc(OCCNC)cc1)c1ccccc1 [ND-tam]
Peripheral Whole Blood Concentration, Median [1, 4]: 241.55 ng/mL
Peripheral Whole Blood Concentration, Range [1, 4]: 77.61 to 337.29 ng/mL
Peripheral Whole Blood Concentration, Median [1, 5]: 240.59 ng/mL
Peripheral Whole Blood Concentration, Range [1, 5]: 80.63 to 321.88 ng/mL
Peripheral Whole Blood Concentration, Median [1, 6]: 276.45 ng/mL
Peripheral Whole Blood Concentration, Range [1, 6]: 212.5 to 340.41 ng/mL

Compound: CC/C(=C(\c1ccc(O)cc1)c1ccc(OCCN(C)C)cc1)c1ccccc1 [4OH-tam]
Peripheral Whole Blood Concentration, Median [1, 4]: 3.27 ng/mL
Peripheral Whole Blood Concentration, Range [1, 4]: 1.5 to 9.31 ng/mL
Peripheral Whole Blood Concentration, Median [1, 5]: 3.07 ng/mL
Peripheral Whole Blood Concentration, Range [1, 5]: 1.5 to 7.66 ng/mL
Peripheral Whole Blood Concentration, Median [1, 6]: 3.24 ng/mL
Peripheral Whole Blood Concentration, Range [1, 6]: 3.06 to 3.43 ng/mL

Compound: 4-hydroxytamoxifen
range of metabolite levels before dose adjustment [1]: 1.5 to 9.31 ng/mL
range of metabolite levels after dose adjustment [1]: 3.34 to 12.99 ng/mL

Further lines, with some results ahead:

Peripheral Whole Blood Concentration, Median [1, 4]: 81.72 ng/mL
Peripheral Whole Blood Concentration, Range [1, 4]: 14.22 to 210.39 ng/mL
Peripheral Whole Blood Concentration, Median [1, 5]: 77.46 ng/mL
Peripheral Whole Blood Concentration, Range [1, 5]: 31.22 to 170.82 ng/mL
Peripheral Whole Blood Concentration, Median [1, 6]: 91.49 ng/mL
Peripheral Whole Blood Concentration, Range [1, 6]: 67.49 to 115.48 ng/mL
range of metabolite levels before dose adjustment [1]: 14.22 to 210.39 ng/mL
concentration at 8 weeks [1]: 80.6 to 255 ng/mL
Compound: CC/C(=C(\c1ccccc1)c1ccc(OCCN(C)C)cc1)c1ccccc1 [tamoxifen]
toxicity or side effects on dose escalation ([2]; 40 mg daily versus 20 mg daily, eight weeks after dose adjustment): did not increase potential toxicity or side effects
Cold Sweats: Patients reported side effect (%) [2, 7]: 19.23%
Diarrhea: Patients reported side effect (%) [2, 7]: 0.00%
Headaches: Patients reported side effect (%) [2, 7]: 53.85%
Hot Flashes: Patients reported side effect (%) [2, 7]: 50.00%
Lightheaded (dizzy): Patients reported side effect (%) [2, 7]: 34.62%
Mood swings: Patients reported side effect (%) [2, 7]: 65.38%
Pain in joints: Patients reported side effect (%) [2, 7]: 50.00%
Pain or discomfort with intercourse: Patients reported side effect (%) [2, 7]: 3.85%
Breast sensitivity/tenderness: Patients reported side effect (%) [2, 8]: 53.85%
Irritable: Patients reported side effect (%) [2, 8]: 61.54%
Lost interest in sex: Patients reported side effect (%) [2, 8]: 15.38%
Night sweats: Patients reported side effect (%) [2, 8]: 26.92%
Vaginal bleeding or spotting: Patients reported side effect (%) [2, 8]: 23.08%
Vaginal discharge: Patients reported side effect (%) [2, 8]: 42.31%
Vaginal dryness: Patients reported side effect (%) [2, 8]: 11.54%
Vaginal itching/irritation: Patients reported side effect (%) [2, 8]: 15.38%
Vomiting: Patients reported side effect (%) [2, 8]: 3.85%
Weight gain: Patients reported side effect (%) [2, 8]: 65.38%
breast sensitivity or tenderness, participants reporting [2, 9]: 53.85%
cold sweats, participants reporting [2, 9]: 19.23%
headaches, participants reporting [2, 9]: 53.85%
hotflush, participants reporting [2, 9]: 50%
irritability, participants reporting [2, 9]: 61.54%
lightheaded/dizziness, participants reporting [2, 9]: 34.62%
lost interest in sex, participants reporting [2, 9]: 15.38%
mood swings, participants reporting [2, 9]: 65.83%
night sweats, participants reporting [2, 9]: 26.92%
pain in joints, participants reporting [2, 9]: 50%
pain or discomfort during intercourse, participants reporting [2, 9]: 3.85%
vaginal bleeding or spotting, participants reporting [2, 9]: 23.08%
vaginal discharge, participants reporting [2, 9]: 42.31%
vaginal dryness, participants reporting [2, 9]: 11.54%
vaginal itching or irritation, participants reporting [2, 9]: 15.38%
vomiting, participants reporting [2, 9]: 3.85%
weight gain, participants reporting [2, 9]: 65.83%
diarrhea, participants reporting ([2]; IMs, 40 mg tamoxifen daily, post-dose adjustment): No post-dose adjustment participants reported diarrhea
Breast sensitivity/tenderness: Patients reported side effect (%) [2, 10]: 41.94%
Cold Sweats: Patients reported side effect (%) [2, 10]: 12.90%
Diarrhea: Patients reported side effect (%) [2, 10]: 3.23%
Headaches: Patients reported side effect (%) [2, 10]: 29.03%
Hot Flashes: Patients reported side effect (%) [2, 10]: 35.48%
Irritable: Patients reported side effect (%) [2, 10]: 58.06%
Lightheaded (dizzy): Patients reported side effect (%) [2, 10]: 35.48%
Lost interest in sex: Patients reported side effect (%) [2, 10]: 64.52%
Mood swings: Patients reported side effect (%) [2, 10]: 74.19%
Night sweats: Patients reported side effect (%) [2, 10]: 29.03%
Pain in joints: Patients reported side effect (%) [2, 10]: 67.74%
Pain or discomfort with intercourse: Patients reported side effect (%) [2, 10]: 51.61%
Vaginal bleeding or spotting: Patients reported side effect (%) [2, 10]: 16.13%
Vaginal dryness: Patients reported side effect (%) [2, 10]: 32.26%
Vaginal itching/irritation: Patients reported side effect (%) [2, 10]: 22.58%
Vomiting: Patients reported side effect (%) [2, 10]: 6.45%
Weight gain: Patients reported side effect (%) [2, 10]: 64.52%
breast sensitivity or tenderness, respondents reporting [2, 11]: 41.94%
cold sweats, respondents reporting [2, 11]: 12.9%
diarrhea, respondents reporting [2, 11]: 3.23%
headaches, respondents reporting [2, 11]: 29.03%
hotflush, respondents reporting [2, 11]: 35.48%
irritability, respondents reporting [2, 11]: 58.06%
lightheaded/dizziness, respondents reporting [2, 11]: 35.48%
lost interest in sex, respondents reporting [2, 11]: 64.52%
mood swings, respondents reporting [2, 11]: 74.19%
night sweats, respondents reporting [2, 11]: 29.03%
pain in joints, respondents reporting [2, 11]: 67.74%
pain or discomfort during intercourse, respondents reporting [2, 11]: 51.61%
vaginal bleeding or spotting, respondents reporting [2, 11]: 16.13%
vaginal dryness, respondents reporting [2, 11]: 32.26%
vaginal itching or irritation, respondents reporting [2, 11]: 22.58%
vomiting, respondents reporting [2, 11]: 6.45%
thrombophlebitis, thrombosis, endometriosis, and endometrial cancer ([2]; observed population, short follow up): none of these side effects were observed

Peripheral Whole Blood Concentration, Median [1, 4]: 8.33 ng/mL
Peripheral Whole Blood Concentration, Range [1, 4]: 3.17 to 22.97 ng/mL
Peripheral Whole Blood Concentration, Median [1, 5]: 11.98 ng/mL
Peripheral Whole Blood Concentration, Range [1, 5]: 3.55 to 34.77 ng/mL
Peripheral Whole Blood Concentration, Median [1, 6]: 4.52 ng/mL
Peripheral Whole Blood Concentration, Range [1, 6]: 3.94 to 5.11 ng/mL
range of metabolite levels before dose adjustment [1]: 3.17 to 22.97 ng/mL
endoxifen levels in NMs at baseline ([1]; NM patients (n=81), tamoxifen 20 mg/day, baseline): 3.55 to 34.77 ng/mL
concentration at 8 weeks [1]: 7.68 to 23.4 ng/mL
average endoxifen level of IMs ([1]; this study, IMs): 9.6 ng/mL
Compound: CC/C(=C(\c1ccc(O)cc1)c1ccc(OCCNC)cc1)c1ccccc1 [endoxifen, 4-hydroxy-N-desmethyltamoxifen]
average endoxifen level of IMs ([3]; previous study): 8.1 ng/mL
range of endoxifen level ([3]; study in Singaporean population): 1.74 to 42.8 ng/mL
range of endoxifen level ([3]; study in Swedish population): 2.3 to 16 ng/mL
